Read-outs that look alike come from different tables or passages of the source. Square brackets hold non-standard residues; d marks the D form. Peptide text beside a SMILES is read from it. * marks the point of attachment. ξ: configuration not given here. dIle(3ξ) = CCC(C)[C@@H](N)C(=O)O; Ile(3ξ) = CCC(C)[C@H](N)C(=O)O; ξK = NCCCCC(N)C(=O)O; Butyryl = CCCC(=O)*
Experiments:
Gene cluster 2631 = test: HiTES in S. erythraea, gene cluster 2631; assay type: cell-based; settings: FIG. 10
Gene cluster 3648 = test: HiTES in S. avermitilis, gene cluster 3648; assay type: cell-based; settings: FIGS. 16 and 17
Gene cluster 4477 = test: HiTES in S. erythraea, gene cluster 4477; assay type: cell-based; settings: FIG. 14
Gene cluster 4143 = test: HiTES in S. erythraea, gene cluster 4143; assay type: cell-based; settings: FIG. 12
Gene cluster 4286 = test: HiTES in S. erythraea, gene cluster 4286; assay type: cell-based; settings: FIG. 13
S. cerevisiae = test: Antifungal microtiter assay; assay type: cell-based; settings: Saccharomyces cerevisiae, 40 h, OD600
Experimental: Bacillus subtilis 168, E. coli K 12, Pseudomonas aeruginosa PAO1, Enterococcus faecalis OG1RF, Staphylococcus aureus Newman, Saccharomyces cerevisiae and Saccharomyces pombe were used for antibiotic assays. B. subtilis (30° C.), E. coli (37° C.), P. aeruginosa (30° C.), and E. faecalis (37° C.) were cultured in LB medium at the temperatures indicated. S. aureus was cultured in Brain-Heart-Infusion (BHI) medium at 37° C. S. cerevisiae and S. pombe were grown at 25° C. in YPM medium (0.5% yeast extract, 0.3% peptone, 2.5% mannitol), and YES medium (0.5% yeast extract, 3% glucose, 225 mg/L leucine, 225 mg/L histidine, 225 mg/L adenine, 225 mg/L uracil), respectively. The assays were carried out in accordance with the 2003 guidelines of the Clinical and Laboratory Standards Institute (CLSI) using the microtiter method. Briefly, microbial seed cultures were initiated by inoculating 3 mL of the indicated medium each strain and by growing these overnight at the indicated temperatures. Each culture was then diluted to an initial OD600 nm of 0.02 in 100 μL volume per well in a 96-well plate, which gave an inoculum of ˜5×10^5 to 5×10^6 cells. […] The plates were then incubated at the temperatures listed above without shaking and OD600 nm determined after 16 h (bacteria) or 40 h (yeast). […]

[1] = system: 36 diverse cancer cell lines; settings: cited from earlier work
sur cluster = test: High-throughput elicitor screen (HiTES), eGFPx3 reporter strains of the sur cluster; assay type: cell-based, Streptomyces albus J1074; settings: attB::Psur-eGFPx3 and surE::eGFPx3, ~33 μM, 60 h, hit threshold 2.5-fold eGFP fluorescence
Experimental: These next four steps are seen be referring to the previously described example. In the previously described example, HiTES was carried out using the two constructs seen in FIGS. 2B and 2C with a ˜500-member natural products library. Each S. albus construct was grown in a 96-well format, supplemented with the compound library, and the effect of each compound on the silent BGC determined using eGFP-derived fluorescence. Interference from naturally fluorescent compounds in the library was eliminated by subtracting the […], immediately after addition of the library members.
Referring to FIGS. 3A and 3B, results for both genetic constructs are shown. These graphs show relative expression of a neutral site reporter, attB::Psur-eGFPx3 (FIG. 3A) or targeted sur reporter, surE::eGFPx3 (FIG. 3B) as a function of exogenously-supplied small molecules. Each bar represents the level of expression of sur in the presence of a single candidate elicitor. Plus signs denote the positive control, attB::PermE-eGFPx3. Minus signs denote the negative controls, attB::Psur-eGFPx3 (3A) or surE::eGFPx3 (3B) in the absence of any metabolites. The expression has been normalized to the positive control.
In this example, the threshold amount was a 2.5 fold induction of eGFP-derived fluorescence emission. Thus, hits were considered those that gave at least a 2.5-fold induction of eGFP-derived fluorescence emission. However, in other embodiments, hits may be those giving at least a 2 fold induction, more preferably at least a 3 fold induction, and more preferably at least a 4 fold induction.
Seed cultures for the reporter strains sur::eGFPx3, attB::Psur-eGFPx3, negative control wild-type, and positive control attB::PermE-eGFPx3 inoculated by transferring fresh spores (˜10^7) into 20 mL of YEME medium (per L: 3% (w/v) yeast extract, 5% peptone, 3% malt extract, 1% glucose and 10.7% sucrose, and 5 mM MgCl2.6H2O) in a 125 mL Erlenmeyer flask equipped with stain-less steel springs. The cultures were grown at 30° C. and 250 rpm for 3 days. Mycelia from each of the four cultures were collected by centrifugation (10 min, 3000 g, RT) and diluted into 150 mL of R4 medium to give a final concentration of 0.05% (w/v). R4 medium consisted of (per L) 0.5% (w/v) glucose, 0.1% yeast extract, 0.5% MgCl2.6H2O, 0.2% CaCl2.2H2O, 0.15% proline, 0.118% valine, 0.28% TES, 50 mg/L casamino acid, 100 mg/L K2SO4, and 1× trace element solution, which contains 40 mg/L ZnCl2, 200 mg/L FeCl3.6H2O, 10 mg/L CuCl2.2H2O, 10 mg/L MnCl2.4H2O, 10 mg/L Na2B4O7.10H2O, and 10 mg/L (NH4)6Mo7O24.4H2O).
Subsequently, the two reporter strains (sur::eGFPx3 and attB::Psur-eGFPx3) were each dispensed into 5× sterile, clear-bottom 96-well plates (150 μL per well) using a MultiFlo Microplate Dispenser (BioTek). A separate sterile 96-well separate plate was prepared for positive and negative controls; it contained the negative control (wt S. albus J1074) in columns 1-3, sur::eGFPx3 in columns 4-6, attB::Psur-eGFPx3 in columns 7-9, and the positive control attB::PermE-eGFPx3 in columns 10-12 of the plate. No elicitors were added to the control plates. […] Upon additional of the compound library, t=0 fluorescence reads were recorded on a Synergy H1MF plate reader (BioTek) using Aex=485 nm and Aem=505-650 nm in 5 nm steps. […]

surA and surC = test: RT-qPCR of surA and surC transcripts in wt S. albus; assay type: cell-based, Streptomyces albus J1074; settings: for induction of surA and surC: mRNA vs DMSO control, wt S. albus
Experimental: In the example above, the effects of these putative elicitors on the sur cluster were validated by performing a RT-qPCR with wt S. albus. Upon exposure of S. albus to each elicitor or DMSO (control), total RNA was be isolated, converted to cDNA and the surA and surC transcripts quantified by qPCR. […] To further verify the effect of 1 and 2, a dose-response assay was carried out. With both elicitors, a concentration-dependent induction of sur was observed, yielding optimal upregulation at a final concentration of ˜23 μM (etoposide) and −30 μM (ivermectin) (FIG. 4B). These concentrations induced a ˜10-fold (etoposide) and 4.5-fold (ivermectin) upregulation of surC.
All operations involving RNA utilized a dedicated RNase-free work area. To commence the experiment, seed cultures of wt S. albus J1074 were prepared by inoculating 3 ml of TSBY medium (3% (w/v) tryptic soy broth and 0.5% yeast extract) in a sterile 14 ml bacterial culture tube with freshly-prepared spores (˜10^7). The culture was incubated at 30° C. and 250 rpm in an Ecotron Shaker (ATR). After 48 hours cultivation, the cells were collected by centrifugation and subsequently diluted to a final concentration of 0.05% (w/v) in 250 ml Erlenmeyer flask containing 50 ml of R4 medium. Desired elicitors were added to final concentrations indicated in the figures (typically 1-100 μM), and the cultures were incubated at 30° C. and 250 rpm. After 48 h, 1 ml was removed from each sample and transferred to a 1.5 ml RNase-free Eppendorf tube (Ambion). Each sample was centrifuged (16,000 g, 3 min) to collect the cells, the supernatant discarded, the cells flash-frozen in liquid N2, and stored at −80° C.
RNA isolation was carried out using the Qiagen RNeasy kit following the manufacturer's instructions without modifications. Upon isolation, contaminating DNA was removed using the DNA-free kit (Ambion) according to manufacturer's instructions. Gel electrophoreses subsequently confirmed RNA integrity (FIG. S2). Finally, total RNA was converted into cDNA via the PrimeScript™ RT reagent Kit (Takara) using random hexamers as primers and 500 ng of each RNA sample as template.
Three genes (surA, surC and surR) were chosen for quantification by RT-qPCR. The primers were designed using primer-3-plus software available online. The primers were carefully chosen to give an amplicon length of 130-160 bp and a melting temperature of 60° C., though this was later optimized (see below and Table 2). The primers were chosen to vary in length between 18-22 bp, and, if possible, to contain a single G/C clamp at the 3′ end. To ensure optimal qPCR parameters, the genomic DNA of S. albus J1074 was isolated using the Wizard genomic DNA purification kit (Promega), and each amplicon was subsequently amplified using standard PCR conditions with a high-fidelity, proof-reading Q5 DNA polymerase (NEB). The PCR reactions were then separated on a 1.2% agarose gel, the amplicon excised, and gel-extracted with the Gel Extraction kit (Qiagen). The extracted DNA was used to optimize qPCR conditions. Using the amplicon template, the primer concentrations were first varied followed by the annealing/extension temperatures, which ranged from 58-68° C. in eight steps. The combination that gave the lowest quantification cycle (Cq) was used in the experiments (Table 2). The Cq was obtained with an automatic baseline determined by the CFX Manager Software (Bio-Rad). As positive controls, these standards were included in every plate that contained the experimental samples, along with no-DNA controls, in duplicates.
qPCR analysis was performed on a CFX96 Real-Time PCR Detection System (Bio-Rad) consisting of a C1000 Thermal Cycler and a CFX96 Real-Time System. The reaction was carried out in hard-shell, clear 96-well qPCR plates (Bio-Rad) and utilized the iTaq Universal SYBR Green Supermix (Bio-Rad). […]

cathepsin B = molecular target: T1, cathepsin B (Homo sapiens, UniProt P07858); test: Cathepsin B inhibition assay (fluorescence kit); assay type: biochemical
T1 construct: purchased Sigma-Aldrich
Experimental: Cathepsin B inhibition assays were carried as previously reported using the Cathepsin B Inhibition assay kit (Sigma-Aldrich). The fluorescence-based assays was conducted in a final volume of 50 μL according to manufacturer instructions. Fluorescence emission was determined in a microtiter plate in kinetic mode (1 read per minute for 1 h) using a BioTek H1MF plate reader and Aex˜400/Acm˜505 nm. IC50 values were subsequently calculated according to instructions.

COc1c2ccoc2cc2oc(=O)ccc12 [Bergapten]
elicitor of gene cluster 2631 (ranking) (Gene cluster 2631): top three elicitors

COc1cc(CNC(=O)CCCC/C=C/C(C)C)ccc1O [Capsacin]
elicitor of gene cluster 3648 (ranking) (Gene cluster 3648): top four elicitors

OCc1c[nH]c2ccccc12 [Indole-3-carbinol]
elicitor of gene cluster 4477 (ranking) (Gene cluster 4477): top three elicitors
elicitor of gene cluster 4143 (ranking) (Gene cluster 4143): top three elicitors

CC#C[C@]1(O)CC[C@H]2[C@@H]3CCC4=CC(=O)CCC4=C3[C@@H](c3ccc(N(C)C)cc3)C[C@@]21C [Mifepristone]
elicitor of gene cluster 3648 (ranking) (Gene cluster 3648): top four elicitors

CC[C@H](C)/C=C(C)/C=C/C1=CC2=C(Cl)C(=O)[C@](C)(OC(C)=O)C(=O)C2=CO1 [Sclerotiorin]
elicitor of gene cluster 4286 (ranking) (Gene cluster 4286): top three elicitors

CCCC(=O)NCCCCC1NC(=O)[C@@H](C(C)CC)NC(=O)[C@H](C(C)CC)NC(=O)[C@@H](C)NC(=O)[C@H](C(C)CC)NC(=O)[C@@H](CC(C)C)NC(=O)[C@@H](Cc2ccccc2)NC(=O)[C@H](C(C)CC)NC1=O (stereo partly drawn) [acylsurugamide A] (cyclo([Ile(3ξ)][dA][Ile(3ξ)][dIle(3ξ)][ξK](Butyryl)[Ile(3ξ)][dF][dL]))
IC50 (S. cerevisiae): 3.5 µM

CNC1=CC(=O)c2cc(C)ncc2C1=O [compound 25, 3-methyl-7-methylamino-5,8-isoquinolinedione]
IC50 ([1]; read-out: IC50s (range over panel)): 0.2 to 50 µM
IC50 ([1]; read-out: mean IC50): 3.5 µM

CC(C)[C@@]1(NC(=O)[C@@H]2C[C@@H]3c4cccc5[nH]cc(c45)C[C@H]3N(C)C2)O[C@@]2(O)[C@@H]3CCCN3C(=O)[C@H](Cc3ccccc3)N2C1=O [dihydroergocristine]
induction of the sur cluster in both reporter strains (hit ranking) (sur cluster): best hits
induction of surA and surC (surA and surC): 3 fold

Oc1cc(O)cc(/C=C/c2ccc(O)c(O)c2)c1 [piceattanol]
induction of the sur cluster in both reporter strains (hit ranking) (sur cluster): best hits

CC(C)C[C@H]1NC(=O)[C@@H](Cc2ccccc2)NC(=O)[C@H](C(C)C)NC(=O)[C@H](CCCCN)NC(=O)[C@@H](C(C)C)NC(=O)[C@H](C(C)C)NC(=O)[C@@H](C)NC(=O)[C@H](C(C)C)NC1=O [surugamide I] (cyclo(KV[dF][dL]V[dA]V[dV]))
IC50 (cathepsin B): 9 µM

bromolaudanosine
induction of the sur cluster in both reporter strains (hit ranking) (sur cluster): best hits

ivermectin
induction of the sur cluster in both reporter strains (hit ranking) (sur cluster): best hits
upregulation of surC (surA and surC; at the optimal elicitor concentration, vs DMSO): 4.5 fold
induction of surA and surC (surA and surC): 3 fold
elicitor of gene cluster 4143 (ranking) (Gene cluster 4143): top three elicitors

— patent publication US11629174B2, “Cryptic metabolites and method for activating silent biosynthetic gene clusters in actinomycete bacteria” (The Trustees of Princeton University, priority 2017, dated 2023)
